The record followed here is article PMC4632086, “Effects and possible mechanisms of action of acacetin on the behavior and eye morphology of Drosophila models of Alzheimer’s disease” (Scientific Reports, 2015).

By IC50 is commonly meant the concentration that gives 50% inhibition.

One data set has as its target T1, recombinant human BACE-1 (Homo sapiens, UniProt P56817).
T1 construct: purchased R&D Systems (Minneapolis, MN, USA)
Description: FRET-based enzyme assay, BACE-1 inhibition. Format: biochemical.

Data set [1] has as its system GMR < APP/BACE-1 flies. Description: Cason's trichrome staining of eye sections (photoreceptor degeneration). Format: in vivo, Drosophila melanogaster. Conditions: 100, 300, and 500 μM; 5- and 15-day-old males. As to the method: Cason’s trichrome staining was performed, as described by Wang et al.[33] and Perumalsamy et al.[77]. Briefly, the heads of 5- and 15-day-old male GMR < APP/BACE-1 flies, cultured in vials as stated previously, were fixed in a 4% paraformaldehyde buffer solution (pH 7.4) overnight at 4 °C, and paraffin-embedded preparations of the fly heads were then sectioned at 10 μm thickness using a HM 340E rotary microtome (Thermo Scientific Microm, Walldorf, Germany). The sections were dried at 40 °C overnight, subsequently deparaffinized with CitriSolv (Fisher Scientific, Fair Lawn, NJ, USA), and rehydrated using a series of ethanol solutions in phosphate-buffered saline (PBS). The rehydrated paraffin sections were soaked in Carson’s trichrome solution for 15 min, and the slides were gently swashed in tap water and subsequently rinsed three times in distilled water (DW). The excess water was removed with tissue paper, and the samples were mounted using Vectashield H-1000 mounting medium (Vector Laboratories, Burlingame, CA, USA).

The test system of data set [2] is GMR < APP/BACE-1 flies. Description: Congo red staining of amyloid plaques in compound eyes. Format: in vivo, Drosophila melanogaster. The conditions noted are these: 5- and 15-day-old flies. Here is the method: Congo red staining was performed to detect the amyloid plaques in the Drosophila AD model. The paraffin-embedded sections described above were deparaffinized and then stained using NovaUltra Special Stain Kits (IHC World, Woodstock, MD, USA) according to the manufacturer’s instructions. Finally, the sections were dehydrated and mounted with mounting medium. The images were observed and captured using an EZ4 HD stereo microscope.

A further data set relates to elav < APP/BACE-1 flies. Description: Feeding assay (Acid red intake). Format: in vivo, Drosophila melanogaster. The conditions noted are these: 100, 300, and 500 μM; males; 2 h feeding. As to the method:
The adult feeding assay was performed according to the methods of Wang et al.[33] and Bahadorani et al.[79]. Groups of 15 newly emerged male elav < APP/BACE-1 flies were cultured on standard media for 3 days and then starved for 20 h in vials containing three layers of Whatman no. 2 filter paper (Whatman, Maidstone, UK) soaked in DW. The flies were then transferred into vials containing media (with 0.2% Acid red) supplemented with acacetin (100, 300, and 500 μM) in 0.1% DMSO. The controls were fed with media supplemented with 0.2% Acid red and 0.1% DMSO. After 2 h of feeding, the abdomens were isolated and homogenized in 1 mL DW. After centrifugation (5000 rpm, 25 °C, 5 min), the optical density (OD) of the supernatant was measured at 505 nm, because this OD value is considered to index the amount of food intake by flies, as described by Min and Tatar[80]. All treatments were repeated three times using 15 males per replicate.

The next data set relates to human APP mRNA. Description: Real-time qRT-PCR, human APP mRNA in elav < APP/BACE-1 flies. The conditions noted are these: 100, 300, and 500 μM; 20-day-old males; compared to vehicle. In kind it is in vivo, Drosophila melanogaster. Here is the method:
(§1) Real-time qRT-PCR with SYBR Green dye was performed to determine whether acacetin affected the expression levels of the human APP and BACE-1 mRNAs in the transgenic flies. The elav < APP/BACE-1 and elav < GFP flies were cultured from the egg stage in vials, as stated previously. The controls received 0.1% DMSO only. The total RNA was extracted from 30 heads (30 mg) of male elav < APP/BACE-1 and elav < GFP flies (20 days old) using the RNeasy Mini Kit (Qiagen, Hilden, Germany) according to the manufacturer’s instructions. The residual genomic DNA was removed using RQ1 RNase-Free DNase (Promega, Fitchburg, WI, USA), and 1 μg of the total RNA from each sample was used for complementary DNA (cDNA) synthesis with an oligo (dT) 12–18 primer (Invitrogen, Carlsbad, CA, USA) according to the protocol of the SuperScript III Reverse Transcriptase Kit. Real-time qRT-PCR was performed in 96-well plates using the StepOne Plus Real-Time PCR System (Applied Biosystems, Darmstadt, Germany). […] The mRNA expression levels of the target genes were normalized to the mRNA expression level of the housekeeping gene rp 49 that encodes the Drosophila ribosomal protein 49, and analyzed by the 2^–ΔΔCT method using the StepOne Software v2.3 and DataAssist Software (Applied Biosystems). The results are expressed as the means ± SEs of duplicate samples from three independent experiments.

The next data set deals with human BACE-1 mRNA. Description: Real-time qRT-PCR, human BACE-1 mRNA in elav < APP/BACE-1 flies. Format: in vivo, Drosophila melanogaster. Conditions: 100, 300, and 500 μM; 20-day-old males. As to the method:
as §1
On the technique in general: Real-time PCR tracks product formation cycle by cycle.

T1 sequence (P56817 46-501): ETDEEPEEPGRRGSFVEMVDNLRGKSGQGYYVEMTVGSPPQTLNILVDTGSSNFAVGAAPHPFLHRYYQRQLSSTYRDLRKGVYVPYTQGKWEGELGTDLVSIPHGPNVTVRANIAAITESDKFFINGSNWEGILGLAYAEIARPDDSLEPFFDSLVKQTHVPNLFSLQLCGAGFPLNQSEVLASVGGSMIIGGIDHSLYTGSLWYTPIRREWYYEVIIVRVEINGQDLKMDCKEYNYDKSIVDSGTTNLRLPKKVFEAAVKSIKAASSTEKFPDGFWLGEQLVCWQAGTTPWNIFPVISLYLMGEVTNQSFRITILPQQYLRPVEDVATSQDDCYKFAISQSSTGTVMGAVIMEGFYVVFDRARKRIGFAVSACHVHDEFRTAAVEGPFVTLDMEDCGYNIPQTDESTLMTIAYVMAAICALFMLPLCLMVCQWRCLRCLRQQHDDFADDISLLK

With `COc1ccc(-c2cc(=O)c3c(O)cc(O)cc3o2)cc1` [acacetin], at recombinant human BACE-1 (based on IC50 values), the “fold more potent inhibitor of BACE-1 than maslinic acid” value is given as 5.5 fold and the “fold more potent inhibitor of BACE-1 than oleanolic acid” value was 4.0 fold. Besides, on recombinant human BACE-1 (pH 4.5, 1 h at 25 °C, read-out: IC50, μM (95% CL)), the concentration for half-maximal inhibition (IC50) was 88.5 µM. In addition, the “Slope ± SE” value on recombinant human BACE-1 (slope of concentration-inhibition fit, listed as Natural acacetin) is given as 0.4 ± 0.04. The photoreceptor degeneration entry with GMR < APP/BACE-1 flies [1] was “partially suppressed the photoreceptor degeneration”. In addition, the amyloid plaque deposits result with GMR < APP/BACE-1 flies [2] (500 μM) is “a few amyloid plaque deposits were also detected”. For the same compound, the “number of amyloid deposits” value with GMR < APP/BACE-1 flies [2] (100 and 300 μM) is “significantly suppressed the number of amyloid deposits”. The “feeding (food intake)” value in the data set on elav < APP/BACE-1 flies was “did not significantly affect feeding”. The “reduction in the APP mRNA levels” value in the data set on human APP mRNA was 69–82%. Further, in the data set on human BACE-1 mRNA, the “human BACE-1 mRNA levels, % of the control levels” value is given as 82–89%.
